Test system: IL-6 production in LPS-stimulated murine spleenocytes
Assay: Inhibition of IL-6 production in LPS-stimulated murine spleenocytes in vitro
Assay type: cell-based
Settings: Mus musculus, 50 μM concentration of the compound, read-out: inhibition of interleukin-6 (IL-6) production
Description: Test and reference substances used in an in vitro assays were dissolved in dimethyl sulfoxide (DMSO) (Sigma Chemical Co., USA) at a concentration of 50 mM and were further diluted to test concentrations in appropriate cell culture medium.
After cervical dislocation, mouse spleens were removed using sterile dissection tools. Spleens were transferred to a pre-wetted cell strainer in a 50 mL sterile conical tube and cell suspension was made by gentle puddle. Cells were centrifuged (20 min, 300×g) and resuspended in 2 mL of sterile phosphate buffered saline (PBS) (Sigma Chemical Co., USA). Red blood cells were lysed by addition of 3 mL of sterile water and occasionally gentle shaking for 1 minute. Afterwards, the tube was filled to 40 mL with DMEM medium and centrifuged (20 min, 300×g). Cells were resuspended in DMEM supplemented with 1% FBS and seeded in a 24-well plate, 1×10^6 cells per mL medium.
Final concentrations of 50 μM, 25 μM, 12.5 μM, 6.3 μM and 3.1 μM of test compounds were prepared by diluting a 50 mM DMSO stock in Dulbecco's modified Eagle medium (DMEM) (Gibco, USA) supplemented with 1% heat inactivated fetal bovine serum (FBS) (BioWest, Ringmer, United Kingdom).
Cells were pre-incubated with the test compounds for 3 h at 37° C., in an atmosphere of 5% CO2 and 90% humidity. Afterwards, cells were stimulated with 1 μg/mL lipopolysaccharide (LPS, E. coli 0111:B4, Sigma Chemical Co., USA) and incubated overnight. Concentration of IL-6 was determined in cell supernatants by sandwich ELISA using capture and detection antibodies (R&D Systems, USA) according to the manufacturer's recommendations.
Inhibition (as percentage) was calculated using the following formula:
% inhibition=[1−(concentration of IL-6 in sample−concentration of IL-6 in negative control)/(concentration of IL-6 in positive control−concentration of IL-6 in negative control)]×100.
The positive control refers to LPS-stimulated samples that were not preincubated with the compounds.
The negative control refers to unstimulated and untreated samples.

Row | Compound | inhibition at 50 µM [%]
1 | CC[C@H]1OC(=O)[C@H](C)[C@@H](O[C@H]2C[C@@](C)(OC)[C@@H](O)[C@H](C)O2)[C@H](C)[C@@H](O[C@@H]2O[C@H](C)C[C@H](N(C)C)[C@H]2OCCCNC(=O)c2nc(C)oc2C)[C@](C)(O)C[C@@H](C)CN(C)[C@H](C)[C@@H](O)[C@]1(C)O [Example 39, 2′-O-(3-{[(2,5-Dimethyl-1,3-oxazol-4-yl)carbonyl]amino}propyl)-9-deoxo-9a-methyl-9a-aza-9a-homoerythromycin A] | > 40
2 | CC[C@H]1OC(=O)[C@H](C)[C@@H](O[C@H]2C[C@@](C)(OC)[C@@H](O)[C@H](C)O2)[C@H](C)[C@@H](O[C@@H]2O[C@H](C)C[C@H](N(C)C)[C@H]2OCCCNC(C)=O)[C@](C)(O)C[C@@H](C)CN(C)[C@H](C)[C@@H](O)[C@]1(C)O [Example 1, 2′-O[3-(Acetylamino)propyl]-9-deoxo-9a-methyl-9a-aza-9a-homoerythromycin A] | > 40
3 | CC[C@H]1OC(=O)[C@H](C)[C@@H](O[C@H]2C[C@@](C)(OC)[C@@H](O)[C@H](C)O2)[C@H](C)[C@@H](O[C@@H]2O[C@H](C)C[C@H](N(C)C)[C@H]2OCCCNC(=O)c2c(C)nn(C)c2Cl)[C@](C)(O)C[C@@H](C)CN(C)[C@H](C)[C@@H](O)[C@]1(C)O [Example 38, 2′-O-(3-{[(5-Chloro-1,3-dimethyl-1H-pyrazol-4-yl)carbonyl]amino}propyl)-9-deoxo-9a-methyl-9a-aza-9a-homoerythromycin A] | > 40
4 | CC[C@H]1OC(=O)[C@H](C)[C@@H](O[C@H]2C[C@@](C)(OC)[C@@H](O)[C@H](C)O2)[C@H](C)[C@@H](O[C@@H]2O[C@H](C)C[C@H](N(C)C)[C@H]2OCCCNC(=O)c2ccc(Cl)cc2)[C@](C)(O)C[C@@H](C)CN(C)[C@H](C)[C@@H](O)[C@]1(C)O [Example 29, 2′-O-(3-{[(4-Chlorophenyl)carbonyl]amino}propyl)-9-deoxo-9a-methyl-9a-aza-9a-homoerythromycin A] | > 40
5 | CC[C@H]1OC(=O)[C@H](C)[C@@H](O[C@H]2C[C@@](C)(OC)[C@@H](O)[C@H](C)O2)[C@H](C)[C@@H](O[C@@H]2O[C@H](C)C[C@H](N(C)C)[C@H]2OCCCNC(=O)C(C)C)[C@](C)(O)C[C@@H](C)CN(C)[C@H](C)[C@@H](O)[C@]1(C)O [Example 3, 2′-O-{3-[(2-Methylpropanoyl)amino]propyl}-9-deoxo-9a-methyl-9a-aza-9a-homoerythromycin A] | > 40
6 | CC[C@H]1OC(=O)[C@H](C)[C@@H](O[C@H]2C[C@@](C)(OC)[C@@H](O)[C@H](C)O2)[C@H](C)[C@@H](O[C@@H]2O[C@H](C)C[C@H](N(C)C)[C@H]2OCCCNC(=O)c2cncn2C)[C@](C)(O)C[C@@H](C)CN(C)[C@H](C)[C@@H](O)[C@]1(C)O [Example 27, 2′-O-(3-{[(1-Methyl-1H-imidazol-5-yl)carbonyl]amino}propyl)-9-deoxo-9a-methyl-9a-aza-9a-homoerythromycin A] | > 40
7 | CC[C@H]1OC(=O)[C@H](C)[C@@H](O[C@H]2C[C@@](C)(OC)[C@@H](O)[C@H](C)O2)[C@H](C)[C@@H](O[C@@H]2O[C@H](C)C[C@H](N(C)C)[C@H]2OCCCNC(=O)[C@@H]2CCCN2C)[C@](C)(O)C[C@@H](C)CN(C)[C@H](C)[C@@H](O)[C@]1(C)O [Example 40, 2′-O-{3-[(1-Methyl-L-prolyl)amino]propyl}-9-deoxo-9a-methyl-9a-aza-9a-homoerythromycin A] | > 40
8 | CC[C@H]1OC(=O)[C@H](C)[C@@H](O[C@H]2C[C@@](C)(OC)[C@@H](O)[C@H](C)O2)[C@H](C)[C@@H](O[C@@H]2O[C@H](C)C[C@H](N(C)C)[C@H]2OCCCNC(=O)c2cc(C)n(C)c2C)[C@](C)(O)C[C@@H](C)CN(C)[C@H](C)[C@@H](O)[C@]1(C)O [Example 26, 2′-O-(3-{[(1,2,5-Trimethyl-1H-pyrrol-3-yl)carbonyl]amino}propyl)-9-deoxo-9a-methyl-9a-aza-9a-homoerythromycin A] | > 40
9 | CC[C@H]1OC(=O)[C@H](C)[C@@H](O[C@H]2C[C@@](C)(OC)[C@@H](O)[C@H](C)O2)[C@H](C)[C@@H](O[C@@H]2O[C@H](C)C[C@H](N(C)C)[C@H]2OCCCNC(=O)c2ccccn2)[C@](C)(O)C[C@@H](C)CN(C)[C@H](C)[C@@H](O)[C@]1(C)O [Example 31, 2′-O-{3-[(2-Pyridinylcarbonyl)amino]propyl}-9-deoxo-9a-methyl-9a-aza-9a-homoerythromycin A] | > 40
10 | CC[C@H]1OC(=O)[C@H](C)[C@@H](O[C@H]2C[C@@](C)(OC)[C@@H](O)[C@H](C)O2)[C@H](C)[C@@H](O[C@@H]2O[C@H](C)C[C@H](N(C)C)[C@H]2OCCCNC(=O)c2cc(C)oc2C)[C@](C)(O)C[C@@H](C)CN(C)[C@H](C)[C@@H](O)[C@]1(C)O [Example 24, 2′-O-(3-{[(2,5-Dimethyl-3-furanyl)carbonyl]amino}propyl)-9-deoxo-9a-methyl-9a-aza-9a-homoerythromycin A] | > 40
11 | CC[C@H](C)[C@H](N)C(=O)NCCCO[C@H]1[C@H](O[C@@H]2[C@@H](C)[C@H](O[C@H]3C[C@@](C)(OC)[C@@H](O)[C@H](C)O3)[C@@H](C)C(=O)O[C@H](CC)[C@@](C)(O)[C@H](O)[C@@H](C)N(C)C[C@H](C)C[C@@]2(C)O)O[C@H](C)C[C@@H]1N(C)C [Example 11, 2′-O-[3-(L-isoleucylamino)propyl]-9-deoxo-9a-methyl-9a-aza-9a-homoerythromycin A] | > 40
12 | CC[C@H]1OC(=O)[C@H](C)[C@@H](O[C@H]2C[C@@](C)(OC)[C@@H](O)[C@H](C)O2)[C@H](C)[C@@H](O[C@@H]2O[C@H](C)C[C@H](N(C)C)[C@H]2OCCCNC(=O)[C@@H](N)Cc2ccccc2)[C@](C)(O)C[C@@H](C)CN(C)[C@H](C)[C@@H](O)[C@]1(C)O [Example 10, 2′-O-[3-(L-phenylalanylamino)propyl]-9-deoxo-9a-methyl-9a-aza-9a-homoerythromycin A] | > 40
13 | CC[C@H]1OC(=O)[C@H](C)[C@@H](O[C@H]2C[C@@](C)(OC)[C@@H](O)[C@H](C)O2)[C@H](C)[C@@H](O[C@@H]2O[C@H](C)C[C@H](N(C)C)[C@H]2OCCCNC(=O)CN(CC)CC)[C@](C)(O)C[C@@H](C)CN(C)[C@H](C)[C@@H](O)[C@]1(C)O [Example 5, 2′-O-{3-[(N,N-Diethylglycyl)amino]propyl}-9-deoxo-9a-methyl-9a-aza-9a-homoerythromycin A] | > 40
14 | CC[C@H]1OC(=O)[C@H](C)[C@@H](O[C@H]2C[C@@](C)(OC)[C@@H](O)[C@H](C)O2)[C@H](C)[C@@H](O[C@@H]2O[C@H](C)C[C@H](N(C)C)[C@H]2OCCCNC(=O)C(C)(C)C)[C@](C)(O)C[C@@H](C)CN(C)[C@H](C)[C@@H](O)[C@]1(C)O [Example 4, 2′-O-{3-[(2,2-Dimethylpropanoyl)amino]propyl}-9-deoxo-9a-methyl-9a-aza-9a-homoerythromycin A] | > 40
15 | CC[C@H]1OC(=O)[C@H](C)[C@@H](O[C@H]2C[C@@](C)(OC)[C@@H](O)[C@H](C)O2)[C@H](C)[C@@H](O[C@@H]2O[C@H](C)C[C@H](N(C)C)[C@H]2OCCCNC(=O)c2cccnc2Cl)[C@](C)(O)C[C@@H](C)CN(C)[C@H](C)[C@@H](O)[C@]1(C)O [Example 34, 2′-O-(3-{[(2-Chloro-3-pyridinyl)carbonyl]amino}propyl)-9-deoxo-9a-methyl-9a-aza-9a-homoerythromycin A] | > 40

— patent publication US20110281812A1, “Compounds” (priority 2009, published 2011)
